Q: Which melting point does the source give for `COC(=O)c1ncn2c1[C@@H]1CCCN1C(=O)c1ccccc1-2` here?
A: Its melting point is 165 to 167 °C.

Q: With `COc1ccc(CCCCNC(=O)C(F)(F)F)cc1S(N)(=O)=O` as the compound, how does the melting point read?
A: The melting point was 145 to 147 °C.

Q: For `ClCN1C=C(Cl)C(Cl)=CN1`, which melting point is on record?
A: Its melting point is 69 to 70 °C.

Q: With `COC(=O)c1cc(=O)c2oc3cc(OC)ccc3c(=O)c2[nH]1` as the compound, how does the melting point read?
A: Its melting point is 258 to 260 °C.

Q: With `C#Cc1ccnc(NC(C)C)n1` as the compound, how does the melting point read?
A: The melting point was 84 to 85 °C.

Q: Which melting point does the source give for `CN1CC(CN2CC(=O)NC2=O)CC2c3cccc4c3c(cn4C)CC21` (configuration not stated) here?
A: Its melting point is 292 to 294 °C.

Q: For `CS(=O)(=O)c1ccc(C(CC2CCCC2)C(=O)Nc2ccccn2)cc1C#N` (configuration not stated), which melting point is on record?
A: The melting point was 87 to 90 °C.

Q: With `O=C(O)c1ccc(-c2nnn[nH]2)cc1Sc1ccccc1` as the compound, how does the melting point read?
A: Its melting point is 239 to 240 °C.

Q: Which melting point does the source give for `Cc1cccc(NC(=O)NC2N=C(CN3CC4CCC(CC4)C3)c3cccc(C)c3N(C)C2=O)c1` (configuration not stated) here?
A: The melting point was 146 to 149 °C.

Q: For `FC(F)(F)c1cccc(-c2ncc(CCl)c(C3CC3)n2)c1`, which melting point is on record?
A: Its melting point is 92 to 95 °C.

Q: With `N=C(NS(=O)(=O)c1ccc(F)cc1)C1=NN(c2ccc(Cl)cc2)C(c2ccccc2)C1` (configuration not stated) as the compound, how does the melting point read?
A: The melting point was 200 to 204 °C.

Q: Which melting point does the source give for `CC(=O)CSC1C2=C(CCCC2)C(=O)N1c1ccc(Cl)cc1F` (configuration not stated) here?
A: Its melting point is 131 to 132 °C.

Q: With `O=c1[nH]c2ccccc2c(=O)n1CCOCCO` as the compound, how does the melting point read?
A: Its melting point is 149 to 151 °C.

Q: Which melting point does the source give for `NC(=O)c1ncccc1CCc1cccc(F)c1` here?
A: Its melting point is 102 to 104 °C.

Q: For `COc1ccc(-c2nn(Cc3ccc(OCc4nc(-c5ccccc5)oc4C)cc3)cc2CCC(=O)O)cc1`, which melting point is on record?
A: The melting point was 137 to 138 °C.

Q: For `NS(=O)(=O)c1cc(CC(=O)C=CC(=O)O)ccc1Cl`, which melting point is on record?
A: Its melting point is 217 to 218 °C.

Q: Which melting point does the source give for `OC(Cn1cncn1)(Cn1cnc(C=Cc2ccc(OC(F)(F)F)cc2)n1)c1ccc(F)cc1F` (configuration not stated) here?
A: Its melting point is 149 to 151 °C.

Q: Which melting point does the source give for `N#Cc1ccc2c(c1)S(=O)(=O)c1ccc(N)cc1C=C2` here?
A: Its melting point is 321 to 324 °C.

Q: Which melting point does the source give for `Cc1oc(-c2ccccc2)nc1C(=O)NN` here?
A: The melting point was 144 to 146 °C.

Q: For `Cc1nnc(-c2ccc3occ(-c4ccc(S(=O)C(F)(F)F)cc4)c3c2)o1` (configuration not stated), which melting point is on record?
A: The melting point was 183 to 184 °C.

Q: With `Cc1ccc(S(=O)(=O)OCCCCCCCl)cc1` as the compound, how does the melting point read?
A: The melting point was 27 to 28 °C.

Q: Which melting point does the source give for `CCOC(=O)c1nc(-c2cccc(Cl)c2)c(-c2ccc(=O)n(C(C)C)n2)s1` here?
A: The melting point was 134 to 136 °C.

Q: For `Cc1cc(C)c2cccc(Cl)c2n1`, which melting point is on record?
A: Its melting point is 66 to 68 °C.

Q: For `CCOC(=O)c1ccc2ccccc2c1O`, which melting point is on record?
A: Its melting point is 48.5 to 49 °C.

Q: Which melting point does the source give for `O=Cc1cccc2nnc(-c3ccccc3)cc12` here?
A: The melting point was 156 to 157 °C.

Q: Which melting point does the source give for `CCOC(=O)CC(=O)Cc1ccc(Br)cc1[N+](=O)[O-]` here?
A: Its melting point is 78 to 80 °C.

Q: Which melting point does the source give for `CON=Cc1cc(N2C(=O)C3=C(CCCC3)C2=O)c(Cl)cc1Cl` here?
A: Its melting point is 122 to 124 °C.

Q: For `CCCC=Cc1c(C(C)C)nc(C(C)C)c(CO)c1-c1ccc(F)cc1F`, which melting point is on record?
A: Its melting point is 59 to 62 °C.

Q: With `CN1N=C(c2ccc3c(c2)CCC(=O)N3)C2CC2C1=O` (configuration not stated) as the compound, how does the melting point read?
A: Its melting point is 255 to 259 °C.

Q: Which melting point does the source give for `COc1ccc(CCNCC(O)c2ccccc2)cc1Cl` (configuration not stated) here?
A: Its melting point is 95 to 96 °C.

Q: With `O=C(O)COCc1cc2cc(C(F)(F)F)ccc2n1S(=O)(=O)c1ccccc1` as the compound, how does the melting point read?
A: Its melting point is 158 to 160 °C.

Q: For `CC1(C)C=C(c2ccccn2)C2=C(CC=CC(C#N)=C2)C1`, which melting point is on record?
A: Its melting point is 120 °C.

Q: For `CC(C)(C)OC(=O)N1C[C@@H]2[C@H](C1)C(F)(F)CCC2(c1ccccc1)c1ccccc1` (racemic), which melting point is on record?
A: The melting point was 162 °C.

Q: For `CCOC(=O)COc1cc(Cl)c2c(=O)c(-c3ccccc3C)coc2c1`, which melting point is on record?
A: Its melting point is 122 to 123 °C.

Q: Which melting point does the source give for `Nc1ccsc1C(=O)NC/C=C\COc1cc(CN2CCCCC2)ccn1` here?
A: The melting point was 138 to 140 °C.

Q: With `COc1cc(/C=C\c2ccc([N+](=O)[O-])cc2)cc(OC)c1OC` as the compound, how does the melting point read?
A: Its melting point is 140 to 142 °C.

Q: With `CCCc1c(OCCCCCCc2cc(OC)c(OC)cc2F)ccc(C(=O)O)c1O` as the compound, how does the melting point read?
A: Its melting point is 127 to 130 °C.

Q: Which melting point does the source give for `COC(=O)c1ccc(NC(=O)c2sc3ccc(OC)cc3c2OC(C)C)cc1O` here?
A: The melting point was 158 to 160 °C.

Q: For `COc1ccc(Nc2nccc(-c3cccs3)n2)cc1`, which melting point is on record?
A: The melting point was 158 to 160 °C.

Q: With `COc1ccc(-n2nc(C)cc2-c2ccccc2)cc1` as the compound, how does the melting point read?
A: The melting point was 110 °C.

Q: For `CCN(CCCCC12CC3CC(CC(C3)C1)C2)C(=O)NCCCc1ccncc1`, which melting point is on record?
A: The melting point was 92.7 to 93.7 °C.

Q: Which melting point does the source give for `Cc1nn(-c2ccc(C(F)(F)F)cn2)cc1COc1ccc(OCC(=O)O)cc1` here?
A: Its melting point is 138 to 139 °C.
